≈ marks a conversion by molar mass, not a printed value.
Experiments:
[1] = system: HL-60; experiment: Cytotoxicity against human HL60 cells by MTT assay; format: cell-based
[2] = system: Cryptococcus neoformans; experiment: Antifungal activity against Cryptococcus neoformans ATCC 32609 after 24 hrs to 1 week; format: functional
[3] = system: Trichophyton rubrum; experiment: Antifungal activity against Trichophyton rubrum Cmccftla after 24 hrs to 1 week; format: functional
[4] = system: A549; experiment: Cytotoxicity against human A549 cells by MTT assay; format: cell-based
[5] = system: Nakaseomyces glabratus; experiment: Antifungal activity against Candida glabrata ATCC 537 after 24 hrs to 1 week; format: functional
[6] = system: Aspergillus fumigatus; experiment: Antifungal activity against Aspergillus fumigatus ATCC 07544 after 24 hrs to 1 week; format: functional

Row | MIC80 [2] [µg/mL] | MIC80 [3] [µg/mL] | MIC80 [5] [µg/mL] | MIC80 [6] [µg/mL] | SMILES | IC50 [1] [µM] | IC50 [4] [µM]
1 |  |  |  |  | COc1cccc2c1C(=O)c1c(O)c3c(c(O)c1C2=O)C[C@@](O)(C(=O)CO)C[C@@H]3O[C@H]1C[C@H](N)[C@H](O)[C@H](C)O1 [DOXORUBICIN] | 0.12 | 
2 | 4 (≈ 14.6 µM) | 16 (≈ 58.3 µM) | 4 (≈ 14.6 µM) | ≥ 64 | CC(C)=C[C@H]1c2c(C)ccc(C)c2[C@@H](O)[C@@H]1C(C)(C)O (relative stereo) | ≥ 100 | ≥ 100
3 | 4 (≈ 4.33 µM) | 1 (≈ 1.08 µM) | 2 (≈ 2.16 µM) |  | C[C@@H]1[C@H](O)[C@@H](C)/C=C/C=C/C=C/C=C/C=C/C=C/C=C/[C@H](O[C@@H]2O[C@H](C)[C@@H](O)[C@H](N)[C@@H]2O)C[C@@H]2O[C@](O)(C[C@@H](O)C[C@@H](O)[C@H](O)CC[C@@H](O)C[C@@H](O)CC(=O)O[C@H]1C)C[C@H](O)[C@H]2C(=O)O [AMPHOTERICIN B] |  | 
4 | 64 (≈ 233 µM) | 64 (≈ 233 µM) | 64 (≈ 233 µM) | ≥ 64 | Cc1ccc(C)c(/C=C/C(C)(C)O)c1/C=C/C(C)(C)O | ≥ 100 | ≥ 100
